Assay results taken from ChEMBL document CHEMBL5329151, “Novel pirfenidone derivatives: synthesis and biological evaluation” (2023).
The source made the active and inactive calls. The rule behind the calls is not given here.

Legend:
3T3-L1 [1] = experiment: Inhibition of cell growth in mouse 3T3-L1 cells at 0.5 to 2 mmol/L by MTT assay; format: functional, cell-based; settings: dose 0.5-2 mmol/L, time 24-48 hrs, TDE = time-dependent effect
3T3-L1 [2] = experiment: Inhibition of cell growth in mouse 3T3-L1 cells after 24 to 48 hrs by MTT assay; format: functional, cell-based; settings: time 24-48 hrs
3T3-L1 [3] = experiment: Inhibition of fibronectin secretion in mouse 3T3-L1 cells assessed as reduction in accumulation of fibronectin in extracellular matrix incubated for 48 hrs by ELISA (reference value: 1389.10 +/- 9.19 ng/ml); format: functional, cell-based; settings: dose 0.5-2 mmol/L
3T3-L1 [4] = experiment: Inhibition of cell growth in mouse 3T3-L1 cells at […] after 24 to 48 hrs by MTT assay; format: functional; settings: dose 2 mmol/L, time 24-48 hrs

| Compound | inhibition (3T3-L1 [1]) | inhibition (3T3-L1 [2]) | inhibition (3T3-L1 [3]) | inhibition at 2000 µM (3T3-L1 [4]) [%] |
| --- | --- | --- | --- | --- |
| N/N=C/c1ccc(-n2ccccc2=O)cc1 | Tde | Dose-Dependent Effect | Active |  |
| Cc1ccc(=O)n(-c2ccccc2)c1 |  | Dose-Dependent Effect |  |  |
| O=c1ccccn1-c1ccc(C2=NC3CCCCC3N2)cc1 (stereo not drawn) | Tde | Dose-Dependent Effect | Active | 95.4 |
| O=c1ccccn1-c1ccc(C2=NCCCN2)cc1 | Tde | Dose-Dependent Effect | Active |  |
| NC(=S)N/N=C\c1ccc(-n2ccccc2=O)cc1 | Tde | Dose-Dependent Effect | Active |  |
| NC(=O)N/N=C\c1ccc(-n2ccccc2=O)cc1 | Tde | Dose-Dependent Effect | Active |  |
| O=c1ccccn1-c1ccc(C2=NCCN2)cc1 | Tde | Dose-Dependent Effect | Active |  |
| O=c1ccccn1-c1ccc(/C=N\Nc2ccccc2)cc1 | Tde | Dose-Dependent Effect | Active |  |
